Assay results reported in patent US5869484A, “Phenylcarbamate derivatives suitable to the use as anticholinesterase substances” (priority 1994, dated 1999).

Legend:
AChE hRBC = biological target: T1, AChE hRBC (Homo sapiens, UniProt P22303); test: biochemical; details: for potency compared with eptastigmine, physostigmine or tacrine: comparison from Table 1; for AChE inhibitory activity and selectivity: AChE versus BuChE, Table 1
T1 construct: purchased Sigma Chemical; host or cells: human erythrocytes
T1 sequence (P22303 32-617 isoform P22303-2 limits assumed): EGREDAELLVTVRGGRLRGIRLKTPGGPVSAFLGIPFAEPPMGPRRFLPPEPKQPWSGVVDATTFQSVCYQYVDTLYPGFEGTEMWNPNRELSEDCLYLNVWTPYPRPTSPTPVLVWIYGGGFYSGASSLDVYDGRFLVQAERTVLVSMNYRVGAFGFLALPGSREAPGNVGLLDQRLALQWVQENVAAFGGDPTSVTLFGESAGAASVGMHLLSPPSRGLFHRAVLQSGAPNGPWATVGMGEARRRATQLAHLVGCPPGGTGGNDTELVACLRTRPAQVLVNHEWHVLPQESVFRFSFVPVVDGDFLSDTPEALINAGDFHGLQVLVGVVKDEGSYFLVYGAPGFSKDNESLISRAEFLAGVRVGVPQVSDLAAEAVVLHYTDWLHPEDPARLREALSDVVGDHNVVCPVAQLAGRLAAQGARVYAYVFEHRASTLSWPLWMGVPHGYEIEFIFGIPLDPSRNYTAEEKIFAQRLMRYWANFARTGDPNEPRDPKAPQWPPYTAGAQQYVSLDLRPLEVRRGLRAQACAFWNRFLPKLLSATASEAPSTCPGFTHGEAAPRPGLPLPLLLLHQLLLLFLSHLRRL
Procedure: (§1) The incubation time between enzyme and product used for the determinations has been 10'.
(§2) The acetylcholinesterase from human erythrocytes (AChE hRBC), the acetylcholinesterase from Electric Eel (AChE E.eel) and the butyrylcholinesterase from human serum (BuChE hserum) coming from the Sigma Chemical have been used.

BuChE hserum = biological target: T2, BuChE hserum (Homo sapiens, UniProt P06276); test: Inhibition of butyrylcholinesterase from human serum (Ellman method); assay type: biochemical; details: for activity on the BuChE: Table 1
T2 construct: purchased Sigma Chemical; host or cells: human serum
T2 sequence (P06276 29-602): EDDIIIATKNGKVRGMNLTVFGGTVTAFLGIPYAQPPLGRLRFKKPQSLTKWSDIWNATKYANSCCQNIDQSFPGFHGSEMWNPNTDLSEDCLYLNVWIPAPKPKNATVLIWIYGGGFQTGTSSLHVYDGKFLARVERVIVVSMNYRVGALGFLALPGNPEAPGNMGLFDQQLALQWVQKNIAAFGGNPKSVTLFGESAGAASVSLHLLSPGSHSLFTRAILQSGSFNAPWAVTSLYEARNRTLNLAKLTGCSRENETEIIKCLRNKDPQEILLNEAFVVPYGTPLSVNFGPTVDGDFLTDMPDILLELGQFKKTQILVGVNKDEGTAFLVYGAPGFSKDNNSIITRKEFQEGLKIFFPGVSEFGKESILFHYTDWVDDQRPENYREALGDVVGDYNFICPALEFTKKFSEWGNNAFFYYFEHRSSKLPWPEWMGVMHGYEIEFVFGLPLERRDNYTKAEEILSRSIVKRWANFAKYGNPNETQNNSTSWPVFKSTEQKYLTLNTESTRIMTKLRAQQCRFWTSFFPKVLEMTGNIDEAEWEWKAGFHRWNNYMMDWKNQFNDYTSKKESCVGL
Procedure: as §1, §2

AChE E. eel = biological target: T3, AChE E. eel (Electrophorus electricus, UniProt O42275); test: biochemical; set-up: species or system Electric Eel
T3 construct: purchased Sigma Chemical
T3 sequence (O42275 24-633): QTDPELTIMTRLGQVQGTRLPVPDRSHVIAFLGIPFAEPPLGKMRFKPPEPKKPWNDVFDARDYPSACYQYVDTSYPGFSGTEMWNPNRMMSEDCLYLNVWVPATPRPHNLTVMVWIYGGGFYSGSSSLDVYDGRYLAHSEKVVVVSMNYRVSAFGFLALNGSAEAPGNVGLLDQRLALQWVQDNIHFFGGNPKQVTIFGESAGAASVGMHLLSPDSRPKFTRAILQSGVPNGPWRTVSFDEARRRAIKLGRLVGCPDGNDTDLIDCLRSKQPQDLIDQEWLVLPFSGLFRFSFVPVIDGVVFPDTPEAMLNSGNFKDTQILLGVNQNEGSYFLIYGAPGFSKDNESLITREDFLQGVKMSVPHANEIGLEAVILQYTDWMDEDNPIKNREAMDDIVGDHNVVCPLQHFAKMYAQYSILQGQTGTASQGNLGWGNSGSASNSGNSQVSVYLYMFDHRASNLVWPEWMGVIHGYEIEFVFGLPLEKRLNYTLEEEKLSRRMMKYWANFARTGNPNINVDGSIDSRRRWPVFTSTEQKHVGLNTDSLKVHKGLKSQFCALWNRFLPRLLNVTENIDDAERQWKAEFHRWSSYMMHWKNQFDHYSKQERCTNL
Procedure: as §1, §2

[1] = Acute toxicity (single administration) in rat; details: in vivo, po, os, read-out: Toxicity tests (LD50), rat os

SMILES	IC50 (AChE hRBC)	IC50 (BuChE hserum)	IC50 (AChE E. eel)	potency compared with eptastigmine, physostigmine or tacrine (AChE hRBC)	AChE inhibitory activity and selectivity (AChE hRBC)	activity on the BuChE (BuChE hserum)	LD50 [1]
CCCCN(C(=O)Oc1cccc(C(C)(C)CN(C)C)c1)c1ccccc1 [Ex. 32, 3-[(1-dimethylamino-2-methyl)prop-2-yl]-N-butyl-N-phenyl phenylcarbamate]	420 nM	70000 nM					
CN(Cc1ccccc1)CC(C)(C)c1cccc(OC(=O)NCCCCCCCCN2CCOCC2)c1 [Ex. 16, 3-[(1-(N-benzyl-N-methyl)amino-2-methyl)prop-2-yl]-N-[8-(4-morpholinyl)-octyl]-phenylcarbamate]	4800 nM	7 nM	14000 nM				
COc1cccc(NC(=O)Oc2cccc(C(C)(C)CN(C)C)c2)c1 [Ex. 22, 3-[(1-dimethylamino-2-methyl)prop-2-yl]-N-(3-methoxy)phenyl phenylcarbamate]	210 nM	600 nM					
CCN(C(=O)Oc1cccc(C(C)(C)CN(C)C)c1)c1ccc(OC)cc1 [Ex. 36, 3-[(1-dimethylamino-2-methyl)prop-2-yl]-N-ethyl-N-(4-methoxy)phenyl phenylcarbamate]	1100 nM	21000 nM					
CCCCCCCNC(=O)Oc1cccc(C(C)(C)CN(C)C)c1 [Ex. 5, 3-[(1-dimethylamino-2-methyl)prop-2-yl]-N-heptyl-phenyl carbamate]	180 nM	30 nM	120 nM	equal or even superior to that of eptastigmine or of physostigmine			
CN(C)CC(C)(C)c1cccc(OC(=O)NCCCCCCCCCCN2CCOCC2)c1 [Ex. 18, 3-[(1-dimethylamino-2-methyl)prop-2-yl]-N-[10-(4-morpholinyl)decyl]-phenylcarbamate]	100 nM			equal or even superior to that of eptastigmine or of physostigmine			
CN(C)CC(C)(C)c1cccc(OC(=O)N(C)C2CCCCC2)c1 [Ex. 40, 3-[(1-dimethylamino-2-methyl)prop-2-yl]-N-cyclohexyl-N-methyl phenylcarbamate]	180 nM	> 100000 nM		equal or even superior to that of eptastigmine or of physostigmine	potent and selective AChE inhibitory activity	poor activity on the BuChE	> 40 mg/kg
CCCCNC(=O)Oc1cccc(C(C)(C)CN(C)C)c1 [Ex. 4, 3-[(1-dimethylamino-2-methyl)prop-2-yl]-N-butylphenyl carbamate]	130 nM	1.6 nM	250 nM	equal or even superior to that of eptastigmine or of physostigmine			
C[C@H]1CN(CCCCCCCCNC(=O)Oc2cccc(C(C)(C)CN(C)C)c2)C[C@H](C)O1 (relative stereo) [Ex. 3, 3-[(1-dimethylamino-2-methyl)-prop-2-yl]-N-[8-[4-(trans 2,6-dimethyl)morpholinyl]octyl]-phenylcarbamate]	200 nM	20 nM	1200 nM				
CN(C)CC(C)(C)c1cccc(OC(=O)N(C)c2ccc(Cl)cc2)c1 [Ex. 37, 3-[(1-dimethylamino-2-methyl)prop-2-yl]-N-(4-chloro)phenyl-N-methyl phenylcarbamate]	60 nM	8000 nM		equal or even superior to that of eptastigmine or of physostigmine	potent and selective AChE inhibitory activity	poor activity on the BuChE	
CN(C)CC(C)(C)c1cccc(OC(=O)N(C)c2cccc(C(F)(F)F)c2)c1 [Ex. 39, 3-[(1-dimethylamino-2-methyl)prop-2-yl]-N-methyl-N-(3-trifluoromethyl) phenyl phenylcarbamate]	1100 nM	> 100000 nM			potent and selective AChE inhibitory activity	poor activity on the BuChE	
Cc1cccc(NC(=O)Oc2cccc(C(C)(C)CN(C)C)c2)c1 [Ex. 21, 3-[(1-dimethylamino-2-methyl)prop-2-yl]-N-(3-methyl)phenyl phenylcarbamate]	600 nM	500 nM					
COc1cc2nc(NCCCCCCCNC(=O)Oc3cccc(C(C)(C)CN(C)C)c3)nc(N)c2cc1OC [Ex. 13, 3-[(1-dimethylamino-2-methyl)prop-2-yl]-N-[N-[(4-amino-6,7-dimethoxy)quinazolin-2-yl]aminoheptyl]-phenyl carbamate]	15 nM	28 nM	23 nM	equal or even superior to that of eptastigmine or of physostigmine			
CC(CN(C)C)c1cccc(OC(=O)NCCCCCCCCN2CCOCC2)c1 (centres unmarked) [Ex. 8, 3-[(1-dimethylamino)prop-2-yl]-N-[8-(4-morpholinyl)octyl]-phenyl carbamate]	220 nM	14 nM	1300 nM				
CN(C)CC(C)(C)c1cccc(OC(=O)Nc2cccc(Cl)c2)c1 [Ex. 23, 3-[(1-dimethylamino-2-methyl)prop-2-yl]-N-(3-chloro)phenyl phenylcarbamate]	220 nM	> 100000 nM			potent and selective AChE inhibitory activity	poor activity on the BuChE	
CN(C)CC(C)(C)c1cccc(OC(=O)Nc2cccc(F)c2)c1 [Ex. 20, 3-[(1-dimethylamino-2-methyl)prop-2-yl]-N-(3-fluoro)phenyl phenylcarbamate]	220 nM	> 100000 nM			potent and selective AChE inhibitory activity	poor activity on the BuChE	
CN(C)CC(C)(C)c1cccc(OC(=O)N(C)c2cccc(Cl)c2)c1 [Ex. 26, 3-[(1-dimethylamino-2-methyl)prop-2-yl]-N-(3-chloro)-phenyl-N-methyl-phenylcarbamate]	400 nM	220000 nM			potent and selective AChE inhibitory activity	poor activity on the BuChE	
CN(C)CC(C)(C)c1cccc(OC(=O)NCc2ccccc2)c1 [Ex. 24, 3-[(1-dimethylamino-2-methyl)prop-2-yl]-N-benzyl-phenylcarbamate]	60 nM	1.3 nM		equal or even superior to that of eptastigmine or of physostigmine			
COc1cc2nc(N3CCN(C(=O)CCCCCCCNC(=O)Oc4cccc(C(C)(C)CN(C)C)c4)CC3)nc(N)c2cc1OC [Ex. 12, 3-[(1-dimethylamino-2-methyl)prop-2-yl]-N-[1-[4-(4-amino-6,7-dimethoxy)quinazolin-2-yl]piperazinyl]-8-octanoyl]-phenyl carbamate]	80 nM	50 nM	17 nM	equal or even superior to that of eptastigmine or of physostigmine			
CN(C)CC(C)(C)c1cccc(OC(=O)Nc2ccccc2)c1 [Ex. 19, 3-[1(1-dimethylamino-2-methyl)prop-2-yl]-N-phenyl phenylcarbamate]	100 nM	230 nM		equal or even superior to that of eptastigmine or of physostigmine			
